Experimental data published in patent US10786518B2, “Compositions and methods of treating HIV” (priority 2017, dated 2020).
Values joined by “and” are separate entries in the source; they are usually repeats but may differ in a detail not shown here. Equal entries are not always repeated. Structures can show the parent of a compound that is named as a salt. Where two headings read alike, the source gives them in different places. Marks after values point to notes of the source that are not given here.

Experiments:
[1] = test system: HIV-1; details: n = 102 newly diagnosed treatment-naive patients
[2] = human, in vivo
[3] = human, in vivo; remark: listed apart in the source
[4] = clinical; details: human
[5] = Food-effect bioavailability study: plasma pharmacokinetics; details: for AUCinf geometric mean ratio (90% CI), fasted (test) vs fed (reference) / AUClast geometric mean ratio (90% CI), fasted (test) vs fed (reference) / Cmax geometric mean ratio (90% CI), fasted (test) vs fed (reference) / t1/2term, mean (SD) / AUCinf, mean (SD) / AUClast, mean (SD) / Cmax, mean (SD): single oral dose D/C/F/TAF 800/150/200/10 mg;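 as to all read-outs here: volunteers randomized to two single-dose treatment sessions separated by a washout of at least 7 days, dosing preceded by an overnight fast of at least 10 h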
[6] = Bioequivalence study: plasma pharmacokinetics; details: single oral dose D/C/F/TAF 800/150/200/10 mg (test), fed, standardized regular breakfast
[7] = clinical; details: human, po
[8] = cited from earlier work; for Mean systemic tenofovir exposure: TAF group versus TDF group of the Phase II study
[9] = administered as D/C/F/TAF, fed = standardized high-fat breakfast
[10] = fed, standardized high-fat breakfast (reference)
[11] = subset of 32 treatment-naive HIV-1-infected adults

Row | Structure (SMILES) | Genotypic susceptibility at screening/baseline, patients [1] | AUC(0-inf) ([4]; in vivo) [µg·h/mL] | AUC(0-t) ([4]; in vivo) [µg·h/mL] | Cmax ([4]; in vivo) [µg/mL] | AUCinf lower in fasted compared with fed conditions [5, 9] [%] | AUCinf geometric mean ratio (90% CI), fasted (test) vs fed (reference) [5] | AUClast geometric mean ratio (90% CI), fasted (test) vs fed (reference) [5] | Cmax geometric mean ratio (90% CI), fasted (test) vs fed (reference) [5] | t1/2term, mean (SD) ([5]; fasted (test)) | AUCinf, mean (SD) [5, 10] | Cmax, mean (SD) [5, 10] | t1/2term, mean (SD) [5, 10] | t1/2term, mean [6] [h] | Mean systemic tenofovir exposure [8] [µg·h/mL] | also measured
1 | Nc1nc(=O)n([C@@H]2CS[C@H](CO)O2)cc1F [FTC, emtricitabine] | (98) % | 11.9 | 11.7 | 2.05 | – | – | – | – | – | – | – | – | – | – | AUCinf geometric mean ratio, test vs reference [2]: 100.13%; AUClast geometric mean ratio, test vs reference [2]: 100.04%; Cmax geometric mean ratio, test vs reference [2]: 99.32%; t1/2term, mean [2]: 17.0 h; t1/2term, mean ([2]; po): 16.5 h; Cmax higher in fasted compared with fed conditions [3]: 26%; AUClast geometric mean ratio (90% CI), fasted (test) vs fed (reference) ([3]; po): 100.12 (96.29-104.10) %
2 | CC(C)CN(C[C@@H](O)[C@H](Cc1ccccc1)NC(=O)O[C@H]1CO[C@H]2OCC[C@H]21)S(=O)(=O)c1ccc(N)cc1 [DRV, darunavir] | (100) % | 85.2 | – | 6.62 | – | – | – | – | – | – | – | – | – | – | –
3 | CC(C)c1nc(CN(C)C(=O)N[C@@H](CCN2CCOCC2)C(=O)N[C@H](CC[C@H](Cc2ccccc2)NC(=O)OCc2cncs2)Cc2ccccc2)cs1 [COBI, cobicistat] | – | – | – | – | 16 | 84.39^k (68.52-103.95)^ % | 70.90 (51.13-98.30) % | 76.96 (55.70-106.33) % | 4.1 (0.9) hours | 6258 (2268) ng · h/mL | 711 (164) ng/mL | 3.9 (0.6) hours | 3.7 | – | AUClast lower in fasted compared with fed conditions [5, 9]: 29%; Cmax lower in fasted compared with fed conditions [5, 9]: 23%; AUClast, mean (SD) [5, 10]: 6168 (2260) ng · h/mL; AUC(0-inf) ([4]; plasma, oral): 6.87 µg·h/mL; AUC(0-t) ([4]; plasma, oral): 6.76 µg·h/mL; Cmax ([4]; plasma, oral): 0.881 µg/mL; Tmax ([4]; plasma, oral): 4 h; Tmax ([7]; plasma): 3 h
4 | CC(C)OC(=O)OCOP(=O)(CO[C@H](C)Cn1cnc2c(N)ncnc21)OCOC(=O)OC(C)C [TDF, tenofovir disoproxil fumarate] | (100) % | – | – | – | – | – | – | – | – | – | – | – | – | 3.737 | –
5 | CC(C)OC(=O)[C@H](C)N[P@](=O)(CO[C@H](C)Cn1cnc2c(N)ncnc21)Oc1ccccc1 [TAF, tenofovir alafenamide] | – | 0.141 | 0.132 | 0.12 | 20 | 80.38^l (73.04-88.45)^ % | 89.54 (81.20-98.72) % | 182.29 (140.50-236.50) % | 0.3 (0.2) hours | 125 (57.3) ng · h/mL | 107 (65.2) ng/mL | 0.5 hours and 0.5 (0.1) hours | 0.3 | 0.339 | AUClast, fasted versus fed conditions (90% CI of the GMR within 80% to […]) ([5]; administered as D/C/F/TAF): comparable under both conditions; Cmax higher in fasted compared with fed conditions [5, 9]: 82%; AUClast, mean (SD) ([5]; fasted (test)): 106 (44.7) ng · h/mL; Lower mean systemic tenofovir exposure than in the TDF group ([8]; Phase II study): greater than 90%; Mean plasma exposure (AUClast) [8, 11]: 0.1305 µg·h/mL; Median plasma half-life [8, 11]: 0.45 h; Tmax ([4]; in vivo): 1.01 h; Tmax ([7]; in vivo): 0.5 h
